{"source": "patent US4057686A", "about": "“Sulphonic acid salts of S-adenosilmethionine” (Bioresearch Limited, priority 1974, dated 1977)", "key": {"hot plate test": {"tested_on": "hot plate test", "assay": "Hot plate analgesia test", "format": "in vivo", "conditions": "in comparison with known drugs studied", "source_text": "(§1) Of the various tests we shall mention the most classic, namely the edema by carragenine and by egg white as a test for acute inflammation; and granuloma by cotton pellets and arthritis by adjuvant as a test for chronic inflammation. […] The analgesia tests were in the form of the hot plate test and stretching by acetic acid, and the Randal and Selitto test in the rat."}, "mouse": {"tested_on": "mouse", "assay": "Acute toxicity (DL50) in the mouse", "format": "in vivo", "source_text": "In particular, the DL50 in the mouse in greater than 2.5 g/kg/os and 1.00 g/kg/i.p."}, "[1]": {"conditions": "mouse, in vivo", "source_text": "Parallel with this, an autoradiographic study was made on the mouse."}, "rabbits": {"tested_on": "rabbits", "conditions": "rabbit, in vivo"}, "cat": {"tested_on": "cat", "conditions": "in vivo, 16 mg/kg"}, "[2]": {"tested_on": "subjects with hyperdislipidemia in the uncompensated stage", "assay": "Clinical tests: hyperdislipidemia", "format": "in vivo, human", "conditions": "2-3 times per day"}, "[3]": {"tested_on": "neuritis, polyneuritis, anthralgia, sciatica, radiocolitis, torticollis; cephalalgia", "experimental": "The antalgic activity of SAM was also tested in different subjects with different neurological frameworks: neuritis, polyneuritis, anthralgia, sciatica, radiocolitis, torticollis."}, "[4]": {"tested_on": "sleeping time induced by hexobarbital", "assay": "Hexobarbital sleeping time in mice (Holten and Larsen)", "format": "in vivo", "experimental": "A further aspect considered by us was the possible action of SAM on the sleeping time by barbiturates.\nFor this purpose an experiment was carried out in which groups of mice received hexobarbital in a dose of 80 mg/kg/i.p. in accordance with the method of Holten and Larsen (Acta Pharmacol. Toxicol. 1956, 12, 346); one group was the control group and the second received SAM in a dose of 4 mg/kg/i.p. (table)."}, "arthritis by adjuvant": {"tested_on": "arthritis by adjuvant", "assay": "Arthritis by adjuvant (chronic inflammation)", "format": "in vivo", "conditions": "orally 8 to 40 mg/kg; parenterally 4 to 8 mg/kg; in comparison with Ibuprofen, Indometacina", "source_text": "as §1"}, "osteoarthritic forms": {"tested_on": "osteoarthritic forms", "assay": "Clinical tests: osteoarthritis", "format": "in vivo, human"}, "rabbit [5]": {"tested_on": "rabbit", "conditions": "in vivo, 16 mg/kg"}, "hepatic steatosis": {"tested_on": "hepatic steatosis", "assay": "Hepatic steatosis models in rats (Handler diet, acute alcoholic intoxication, toxic agents)", "format": "in vivo, rat", "source_text": "(§2) This was confirmed by subsequent pharmacological tests."}, "[6]": {"tested_on": "clear arteriosclerosis with clinical manifestations of the psycho-affective sphere", "assay": "Clinical tests: arteriosclerosis, hypoxydotic states, post-apoplectic syndromes", "format": "in vivo, human"}, "hepatic phospholipids": {"tested_on": "hepatic phospholipids", "assay": "Hepatic phospholipids in rats after intoxication with CCl4", "format": "in vivo, rat", "source_text": "as §2\nHepatic phospholipids in rats after intoxication with CCl4 and treatment with SAM.\nThe values are the averages ± E.S. of 10 values for each group. In studying the hepatoprotective activity we have used an experimental device which produces in the rat the so-called hepatic cholesterol degeneration (Ridout and Coll., Biochem. J. 52, 99, 1952)."}, "[7]": {"tested_on": "disturbances of the sleeping-waking rhythm, insomnia", "assay": "Clinical tests: disturbances of the sleeping-waking rhythm", "format": "in vivo, human", "conditions": "4-13 mg orally"}, "edema by carragenine": {"tested_on": "edema by carragenine", "assay": "Edema by carragenine (acute inflammation)", "format": "in vivo", "conditions": "orally 8 to 40 mg/kg; parenterally 4 to 8 mg/kg; in comparison with Ibuprofen, Indometacina", "source_text": "as §1"}, "rabbit [8]": {"tested_on": "rabbit", "assay": "Local tolerability of injections", "format": "in vivo"}, "[9]": {"tested_on": "stretching by acetic acid", "assay": "Stretching by acetic acid analgesia test", "format": "in vivo", "conditions": "in comparison with known drugs studied", "source_text": "as §1"}, "rats": {"tested_on": "rats", "conditions": "rat, in vivo"}, "[10]": {"tested_on": "subjects with hypoprotidemias, disprotidemias, chronic hepatopathias, precyrrotic and cyrrotic states, malabsorption and protide dispersing syndromes", "assay": "Clinical tests: hypoprotidemias, chronic hepatopathias, cyrrotic states, malabsorption", "format": "in vivo, human", "conditions": "20 to 80 mg per day, intermuscular, intravenous or oral", "experimental": "2. Hundreds of subjects were treated clinically affected with: secondary hypoprotidemias and disprotidemias; persistent and aggressive chronic hepatopathias; precyrrotic and cyrrotic states; malabsorption syndromes, and protide dispersing syndromes."}, "depressive forms": {"tested_on": "depressive forms", "assay": "Clinical tests: depressive forms (tests of Hamilton and Wittenberg)", "format": "in vivo, human", "conditions": "8 to 20 mg 3-4 times per day, 5-15 days, no other therapy"}, "[11]": {"tested_on": "young volunteer healthy subjects of both sexes", "assay": "Tolerability in young volunteer healthy subjects", "format": "in vivo", "conditions": "man, 5-150 mg"}}, "data": [{"smiles": "C[S+](CC[C@H](N)C(=O)O)C[C@H]1O[C@@H](n2cnc3c(N)ncnc32)[C@H](O)[C@@H]1O", "note": "(stereo partly drawn) [SAM, S-Adenosil-L-Methionine]", "values": [{"measurement": "analgesic activity", "setting": "hot plate test", "result": "active"}, {"measurement": "DL50 in the mouse", "setting": "mouse; i.p.", "result": "> 1.00", "unit": "g/kg"}, {"measurement": "DL50 in the mouse", "setting": "mouse; os", "result": "greater than 2.5 g/kg"}, {"measurement": "distribution to tissues", "setting": "[1]", "result": "distributed very rapidly to all the tissues"}, {"measurement": "teratogenic actions or malformations", "setting": "rabbits", "result": "no teratogenic actions were encountered or any malformations"}, {"measurement": "carotid pressure, cardiac and respiratory frequency, electrocardiac trace", "setting": "cat", "result": "does not cause any change"}, {"measurement": "dose dependence of hypocholesterolemising and hypolipemising action", "setting": "[2]; doses of about 8-1.5 mg", "result": "proportional to the dose"}, {"measurement": "hypertriglyceridemia", "setting": "[2]; hyperdislipidemia", "result": "a marked fall"}, {"measurement": "total cholesterolemia", "setting": "[2]; hyperdislipidemia", "result": "a marked fall"}, {"measurement": "β/α lipoproteic ratios", "setting": "[2]; hyperdislipidemia", "result": "normalises"}, {"measurement": "therapeutic (antalgic) effect", "setting": "[3]; neurological frameworks, 6 mg twice a day intermuscular or 13-20 mg 3-4 times per day orally", "result": "available and efficient from the first day of administration"}, {"measurement": "therapeutic effect in recurring and resistant cephalalgia", "setting": "[3]; orally in masticable tablets", "result": "Analogous results were obtained"}, {"measurement": "prolonging the sleeping time induced by hexobarbital", "setting": "[4]", "result": "active in prolonging the sleeping time"}, {"measurement": "anti-inflammatory activity", "setting": "arthritis by adjuvant", "result": "active"}, {"measurement": "activity in osteoarthritic forms", "setting": "osteoarthritic forms; 13 mg twice a day intermuscular or intravenous, and 13-20 mg orally 4 times per day", "result": "active in all osteoarthritic forms"}, {"measurement": "muscular spasm, limitation of movement, localised pain and rigidity", "setting": "osteoarthritic forms; after 7 days, with respect to the placebo", "result": "influenced in a statistically significant manner"}, {"measurement": "therapeutic efficiency vs non-steroid antiphlogistic drug", "setting": "osteoarthritic forms; double blind study", "result": "equal to indomethacin"}, {"measurement": "carotid pressure, cardiac and respiratory frequency, electrocardiac trace", "setting": "rabbit [5]", "result": "does not cause any change"}, {"measurement": "accumulation of lipids at the hepatocite level", "setting": "hepatic steatosis", "result": "significantly reduces"}, {"measurement": "symptomatology in arteriosclerosis", "setting": "[6]; intermuscular, intravenous or slow phleboclysis, 8 to 16 mg 3-4 times per day", "result": "a very favourable modification of the symptomatology"}, {"measurement": "improvement of the clinical framework in post-apoplectic syndromes", "setting": "[6]; post-apoplectic syndromes", "result": "a greater rapidity was found in the improvement"}, {"measurement": "restoration of normal levels of phospholipids", "setting": "hepatic phospholipids", "result": "favours the restoration of normal levels of phospholipids"}, {"measurement": "sleeping-waking ratios", "setting": "[7]", "result": "considerably improve"}, {"measurement": "anti-inflammatory activity", "setting": "edema by carragenine", "result": "active"}, {"measurement": "local tolerability of the intramuscular injection", "setting": "rabbit [8]; intramuscular, even repeated over 180 days", "result": "excellent"}, {"measurement": "local tolerability of the intravenous injection", "setting": "rabbit [8]; intravenous, marginal vein of the auricular pavilion of the rabbit", "result": "excellent"}, {"measurement": "analgesic activity", "setting": "[9]", "result": "active"}, {"measurement": "teratogenic actions or malformations", "setting": "rats", "result": "no teratogenic actions were encountered or any malformations"}, {"measurement": "albumin level", "setting": "[10]", "result": "an increase in the albumin level"}, {"measurement": "percentage ratios between the electrophoretic fractions of the serum", "setting": "[10]", "result": "a tendency to normalise"}, {"measurement": "subjective symptomology and general objective conditions", "setting": "[10]", "result": "often very important improvement"}, {"measurement": "tests of hepatic functionality", "setting": "[10]", "result": "normalising of all the tests of hepatic functionality"}, {"measurement": "total protidemia", "setting": "[10]", "result": "a statistically significant increase"}, {"measurement": "remission of main parameters of depressive forms", "setting": "depressive forms", "result": "a significant remissione of the main parameters"}, {"measurement": "hemopoietic apparatus and hepatic and renal operation", "setting": "[11]; intravenous", "result": "no variations from normal which were statistically significant"}, {"measurement": "electrocardiograph trace", "setting": "[11]; intravenous, 30\" to 20', PQ interval, ST section, extrasistol", "result": "does not show any variation"}, {"measurement": "minimum and maximum pressure, pulse and respiratory frequency", "setting": "[11]; rapid intravenous or phleboclysis, 1 minute to 24 hours", "result": "does not show any variation from normal values"}]}]}
